Assay results from ChEMBL document CHEMBL1201862, “PubChem BioAssay data set” (2004).
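48-hour exposure; five concentrations; linearly interpolated endpoints. GI50: concentration for 50% inhibition of growth.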 Activity calls are given as the source filed them. Cut-off read from the data, not from the text of the source: active = GI50 up to about 1.1 µM and inactive = higher.

Legend:
Assay in all cases: NCI anticancer screen, dose series, 48 h
SF-295 = tested on: SF-295
K562 = tested on: K562
RXF 393 = tested on: RXF 393
LXFL 529 = tested on: LXFL 529
RXF 631 = tested on: RXF 631
SF-539 = tested on: SF-539
CCRF-CEM = tested on: CCRF-CEM
MOLT-4 = tested on: MOLT-4
SK-MEL-2 = tested on: SK-MEL-2
NCI-H226 = tested on: NCI-H226
SNB-75 = tested on: SNB-75
NCI-H460 = tested on: NCI-H460
LOX IMVI = tested on: LOX IMVI
TK-10 = tested on: TK-10
A549 = tested on: A549
DMS-273 = tested on: DMS-273
NCI-H522 = tested on: NCI-H522
ACHN = tested on: ACHN
SNB-78 = tested on: SNB-78
HCT-116 = tested on: HCT-116
IGROV-1 = tested on: IGROV-1
UACC-62 = tested on: UACC-62
U-251 = tested on: U-251
HOP-18 = tested on: HOP-18
OVCAR-8 = tested on: OVCAR-8
CAKI-1 = tested on: CAKI-1
SK-MEL-28 = tested on: SK-MEL-28
OVCAR-5 = tested on: OVCAR-5
HOP-92 = tested on: HOP-92
SNB-19 = tested on: SNB-19
RPMI-8226 = tested on: RPMI-8226
UACC-257 = tested on: UACC-257
EKVX = tested on: EKVX
SW-620 = tested on: SW-620
M14 = tested on: M14
HCC 2998 = tested on: HCC 2998
SK-OV-3 = tested on: SK-OV-3
NCI-H23 = tested on: NCI-H23
A498 = tested on: A498
SN12C = tested on: SN12C
786-0 = tested on: 786-0
HL-60 = tested on: HL-60
SF-268 = tested on: SF-268
HCT-15 = tested on: HCT-15
DLD-1 = tested on: DLD-1
OVCAR-3 = tested on: OVCAR-3
DMS-114 = tested on: DMS-114
M19-MEL = tested on: M19-MEL
KM12 = tested on: KM12
Malme-3M = tested on: Malme-3M
HT-29 = tested on: HT-29
KM-20L2 = tested on: KM-20L2
SK-MEL-5 = tested on: SK-MEL-5
COLO 205 = tested on: COLO 205
OVCAR-4 = tested on: OVCAR-4
UO-31 = tested on: UO-31

SMILES: Cc1cn2c(=O)c3ncn(C4OC(CO)C(O)C4O)c3n(C)c2n1 (stereo unspecified)
- GI50 (SF-295): > 100 µM (inactive)
- GI50 (K562): > 100 µM (inactive)
- GI50 (RXF 393): > 100 µM (inactive)
- GI50 (LXFL 529): > 100 µM (inactive)
- GI50 (RXF 631): > 100 µM (inactive)
- GI50 (SF-539): > 100 µM (inactive)
- GI50 (CCRF-CEM): > 100 µM (inactive)
- GI50 (MOLT-4): > 100 µM (inactive)
- GI50 (SK-MEL-2): > 100 µM (inactive)
- GI50 (NCI-H226): > 100 µM (inactive)
- GI50 (SNB-75): > 100 µM (inactive)
- GI50 (NCI-H460): > 100 µM (inactive)
- GI50 (LOX IMVI): > 100 µM (inactive)
- GI50 (TK-10): > 100 µM (inactive)
- GI50 (A549): > 100 µM (inactive)
- GI50 (DMS-273): > 100 µM (inactive)
- GI50 (NCI-H522): > 100 µM (inactive)
- GI50 (ACHN): > 100 µM (inactive)
- GI50 (SNB-78): > 100 µM (inactive)
- GI50 (HCT-116): > 100 µM (inactive)
- GI50 (IGROV-1): > 100 µM (inactive)
- GI50 (UACC-62): > 100 µM (inactive)
- GI50 (U-251): > 100 µM (inactive)
- GI50 (HOP-18): > 100 µM (inactive)
- GI50 (OVCAR-8): > 100 µM (inactive)
- GI50 (CAKI-1): > 100 µM (inactive)
- GI50 (SK-MEL-28): > 100 µM (inactive)
- GI50 (OVCAR-5): > 100 µM (inactive)
- GI50 (HOP-92): > 100 µM (inactive)
- GI50 (SNB-19): > 100 µM (inactive)
- GI50 (RPMI-8226): > 100 µM (inactive)
- GI50 (UACC-257): > 100 µM (inactive)
- GI50 (EKVX): > 100 µM (inactive)
- GI50 (SW-620): > 100 µM (inactive)
- GI50 (M14): > 100 µM (inactive)
- GI50 (HCC 2998): > 100 µM (inactive)
- GI50 (SK-OV-3): > 100 µM (inactive)
- GI50 (NCI-H23): > 100 µM (inactive)
- GI50 (A498): > 100 µM (inactive)
- GI50 (SN12C): > 100 µM (inactive)
- GI50 (786-0): > 100 µM (inactive)
- GI50 (HL-60): > 100 µM (inactive)
- GI50 (SF-268): > 100 µM (inactive)
- GI50 (HCT-15): > 100 µM
- GI50 (DLD-1): > 100 µM (inactive)
- GI50 (OVCAR-3): > 100 µM (inactive)
- GI50 (DMS-114): > 100 µM (inactive)
- GI50 (M19-MEL): > 100 µM (inactive)
- GI50 (KM12): > 100 µM (inactive)
- GI50 (Malme-3M): > 100 µM (inactive)
- GI50 (HT-29): > 100 µM (inactive)
- GI50 (KM-20L2): > 100 µM (inactive)
- GI50 (SK-MEL-5): > 100 µM (inactive)
- GI50 (COLO 205): > 100 µM (inactive)
- GI50 (OVCAR-4): > 100 µM (inactive)
- GI50 (UO-31): > 100 µM (inactive)
